Experimental data reported in ChEMBL document CHEMBL3885881, “DrugMatrix”.
Starred links: 1 amine or outer side, 2 acyl side, 3 side chain; linkers in the order of their positions; H or OH if unused. Positions of bridges follow the written chain, without caps; N, C: chain ends. Non-standard residues stand in square brackets, D forms with d. Residues, ends and D or L forms follow the SMILES beside them. Chains are numbered I, II in the order given. Actinocin(9to1) = Cc1c2oc3c(C)ccc(C(=O)[*:1])c3nc-2c(C(=O)[*:2])c(N)c1=O; NMeV = CN[C@H](C(=O)O)C(C)C; Sar = CNCC(=O)O

Species: Rattus norvegicus
Experiment: DrugMatrix - Regimen: Daily Repeat
Type: toxicity, organism-based, Sprague-Dawley
Design: regimen Daily Repeat, gender Male, age 6-8 weeks
Conditions: in vivo, iv, vehicle 100 % SALINE; for ABSOLUTE BASOPHIL / ABSOLUTE EOSINOPHIL / ABSOLUTE LYMPHOCYTE / ABSOLUTE MONOCYTE / ABSOLUTE SEGMENTED NEUTROPHIL / BASOPHIL / EOSINOPHIL / ERYTHROCYTE COUNT / HEMATOCRIT / HEMOGLOBIN / LEUKOCYTE COUNT / LYMPHOCYTE / MEAN CORPUSCULAR HEMOGLOBIN / MEAN CORPUSCULAR HEMOGLOBIN CONCENTRATION / MEAN CORPUSCULAR VOLUME / MONOCYTE / NEUTROPHIL / NUCLEATED RED BLOOD CELLS / PLATELET COUNT: tissue Blood; for ALANINE AMINOTRANSFERASE / ALBUMIN / ALKALINE PHOSPHATASE / ASPARTATE AMINOTRANSFERASE / BLOOD UREA NITROGEN / CARBON DIOXIDE / CHLORIDE / CHOLESTEROL / CREATINE PHOSPHOKINASE / CREATININE / GLUCOSE / LACTATE DEHYDROGENASE / LIPASE / PHOSPHORUS / POTASSIUM / SODIUM / TOTAL BILIRUBIN / TOTAL PROTEIN / URIC ACID: tissue Plasma
[1] = 0 mg/kg, 72 h, dose level Control, time 3 day
[2] = 0 mg/kg, 120 h, dose level Control, time 5 day
[3] = 0.006 mg/kg, 72 h, dose level Low, time 3 day

Cc1c2oc3c(C)ccc(C(=O)N[C@@H]4C(=O)N[C@H](C(C)C)C(=O)N5CCC[C@H]5C(=O)N(C)CC(=O)N(C)[C@@H](C(C)C)C(=O)O[C@@H]4C)c3nc-2c(C(=O)N[C@@H]2C(=O)N[C@H](C(C)C)C(=O)N3CCC[C@H]3C(=O)N(C)CC(=O)N(C)[C@@H](C(C)C)C(=O)O[C@@H]2C)c(N)c1=O [DACTINOMYCIN] (I: T[dV]P[Sar][NMeV] / II: T[dV]P[Sar][NMeV]; ester I:1-I:C, II:1-II:C; linker I:N-II:N via Actinocin(9to1))
ABSOLUTE BASOPHIL [1]: 0 CELLS/uL | ABSOLUTE EOSINOPHIL [1]: 33.67 CELLS/uL | ABSOLUTE LYMPHOCYTE [1]: 12123.5 CELLS/uL | ABSOLUTE MONOCYTE [1]: 243.5 CELLS/uL | ABSOLUTE SEGMENTED NEUTROPHIL [1]: 1282.67 CELLS/uL | BASOPHIL [1]: 0% | EOSINOPHIL [1]: 0.33% | ERYTHROCYTE COUNT [1]: 5.18 x10E6/uL | HEMATOCRIT [1]: 32.63% | HEMOGLOBIN [1]: 12.87 G/DL | LEUKOCYTE COUNT [1]: 13.68 x10E3/uL | LYMPHOCYTE [1]: 88.67% | MEAN CORPUSCULAR HEMOGLOBIN [1]: 24.98 pg | MEAN CORPUSCULAR HEMOGLOBIN CONCENTRATION [1]: 39.48 G/DL | MEAN CORPUSCULAR VOLUME [1]: 63.23 fL | MONOCYTE [1]: 1.83% | NEUTROPHIL [1]: 9.17% | NUCLEATED RED BLOOD CELLS [1]: 0.17 /100WBC | PLATELET COUNT [1]: 1114.5 x10E3/uL | ALANINE AMINOTRANSFERASE [1]: 46.17 u/L | ALBUMIN [1]: 4.15 G/DL | ALKALINE PHOSPHATASE [1]: 374.67 u/L | ASPARTATE AMINOTRANSFERASE [1]: 89.33 u/L | BLOOD UREA NITROGEN [1]: 14.83 mg/dL | CARBON DIOXIDE [1]: 25.67 mmol/L | CHLORIDE [1]: 101.17 MEQ/L | CHOLESTEROL [1]: 63.5 mg/dL | CREATINE PHOSPHOKINASE [1]: 494.67 u/L | CREATININE [1]: 0.17 mg/dL | GLUCOSE [1]: 163 mg/dL | LACTATE DEHYDROGENASE [1]: 269.33 u/L | LIPASE [1]: 10.67 u/L | PHOSPHORUS [1]: 11.27 mg/dL | POTASSIUM [1]: 5.85 MEQ/L | SODIUM [1]: 141.68 MEQ/L | TOTAL BILIRUBIN [1]: 0.18 mg/dL | TOTAL PROTEIN [1]: 5.87 G/DL | URIC ACID [1]: 1.28 mg/dL | ABSOLUTE BASOPHIL [2]: 0 CELLS/uL | ABSOLUTE EOSINOPHIL [2]: 24.67 CELLS/uL | ABSOLUTE LYMPHOCYTE [2]: 11832.83 CELLS/uL | ABSOLUTE MONOCYTE [2]: 279.67 CELLS/uL | ABSOLUTE SEGMENTED NEUTROPHIL [2]: 1446.17 CELLS/uL | BASOPHIL [2]: 0% | EOSINOPHIL [2]: 0.17% | ERYTHROCYTE COUNT [2]: 5.61 x10E6/uL | HEMATOCRIT [2]: 35.02% | HEMOGLOBIN [2]: 13.82 G/DL | LEUKOCYTE COUNT [2]: 13.58 x10E3/uL | LYMPHOCYTE [2]: 87.67% | MEAN CORPUSCULAR HEMOGLOBIN [2]: 24.68 pg | MEAN CORPUSCULAR HEMOGLOBIN CONCENTRATION [2]: 39.5 G/DL | MEAN CORPUSCULAR VOLUME [2]: 62.42 fL | MONOCYTE [2]: 2% | NEUTROPHIL [2]: 10.17% | NUCLEATED RED BLOOD CELLS [2]: 0 /100WBC | PLATELET COUNT [2]: 1178.17 x10E3/uL | ALANINE AMINOTRANSFERASE [2]: 52.83 u/L | ALBUMIN [2]: 4.12 G/DL | ALKALINE PHOSPHATASE [2]: 370 u/L | ASPARTATE AMINOTRANSFERASE [2]: 100.5 u/L | BLOOD UREA NITROGEN [2]: 15.17 mg/dL | CARBON DIOXIDE [2]: 28.83 mmol/L | CHLORIDE [2]: 101 MEQ/L | CHOLESTEROL [2]: 69.5 mg/dL | CREATINE PHOSPHOKINASE [2]: 488.67 u/L | CREATININE [2]: 0.23 mg/dL | GLUCOSE [2]: 165 mg/dL | LACTATE DEHYDROGENASE [2]: 502.17 u/L | LIPASE [2]: 11 u/L | PHOSPHORUS [2]: 11.7 mg/dL | POTASSIUM [2]: 5.85 MEQ/L | SODIUM [2]: 142.45 MEQ/L | TOTAL BILIRUBIN [2]: 0.18 mg/dL | TOTAL PROTEIN [2]: 5.85 G/DL | URIC ACID [2]: 1.43 mg/dL | ABSOLUTE BASOPHIL [3]: 0 CELLS/uL | ABSOLUTE EOSINOPHIL [3]: 0 CELLS/uL | ABSOLUTE LYMPHOCYTE [3]: 7777.33 CELLS/uL | ABSOLUTE MONOCYTE [3]: 151.33 CELLS/uL | ABSOLUTE SEGMENTED NEUTROPHIL [3]: 1138 CELLS/uL | BASOPHIL [3]: 0% | EOSINOPHIL [3]: 0% | ERYTHROCYTE COUNT [3]: 5.68 x10E6/uL | HEMATOCRIT [3]: 35.57% | HEMOGLOBIN [3]: 13.43 G/DL | LEUKOCYTE COUNT [3]: 9.07 x10E3/uL | LYMPHOCYTE [3]: 85.67% | MEAN CORPUSCULAR HEMOGLOBIN [3]: 23.67 pg | MEAN CORPUSCULAR HEMOGLOBIN CONCENTRATION [3]: 37.77 G/DL | MEAN CORPUSCULAR VOLUME [3]: 62.63 fL | MONOCYTE [3]: 1.67% | NEUTROPHIL [3]: 12.67% | NUCLEATED RED BLOOD CELLS [3]: 0 /100WBC | PLATELET COUNT [3]: 1053 x10E3/uL | ALANINE AMINOTRANSFERASE [3]: 49.33 u/L | ALBUMIN [3]: 4.33 G/DL | ALKALINE PHOSPHATASE [3]: 363.33 u/L | ASPARTATE AMINOTRANSFERASE [3]: 85.33 u/L | BLOOD UREA NITROGEN [3]: 14 mg/dL | CARBON DIOXIDE [3]: 26 mmol/L | CHLORIDE [3]: 101.67 MEQ/L | CHOLESTEROL [3]: 85.33 mg/dL | CREATINE PHOSPHOKINASE [3]: 333 u/L | CREATININE [3]: 0.25 mg/dL | GLUCOSE [3]: 155.67 mg/dL | LACTATE DEHYDROGENASE [3]: 134 u/L | LIPASE [3]: 11 u/L | PHOSPHORUS [3]: 10.57 mg/dL | POTASSIUM [3]: 6.37 MEQ/L | SODIUM [3]: 143.37 MEQ/L | TOTAL BILIRUBIN [3]: 0.3 mg/dL | TOTAL PROTEIN [3]: 6.17 G/DL | URIC ACID [3]: 1.6 mg/dL
